# Test results taken from patent US20070155780A1, “Stabilized composition containing 4-amino-5-chloro-n-[(1r, 3r, 5s)-8-methyl-8-azabicyclo[3.2.1]oct-3-y1]-2-[1-methylbut-2-ynyloxy]benzamide” (priority 2004, published 2007).
# Assay: Compatibility test of the active ingredient with pharmaceutical additives (storage, HPLC)
# Type: physicochemical
# Conditions: 60° C., relative humidity 75%, one week
# Procedure: Specifically, 4-amino-5-chloro-N-[(1R,3r,5S)-8-methyl-8-azabicyclo[3.2.1]oct-3-yl]-2-[(1S)-1-methylbut-2-ynyloxy]benzamide was admixed with various pharmaceutical additives in weight proportions in Table 2, the resulting compositions were weighed in transparent glass bottles, and were stored at 60° C., relative humidity of 75% for one week while keeping the lid open. Various fillers, disintegrators, binders, lubricants, and others were used as the pharmaceutical additives. As a control, 4-amino-5-chloro-N-[(1R,3r,5S)-8-methyl-8-azabicyclo[3.2.1]oct-3-yl]-2-[(1S)-1-methylbut-2-ynyloxy]benzamide alone was weighed in a transparent glass bottle and was stored under the above-mentioned conditions. The samples before and after storage were evaluated using high-performance liquid chromatography (HPLC). The stabilities of the samples were evaluated based on the total amount of decomposition products (%), the amount (%) of main decomposition product at a retention time (RRT) of 1.37, and the residual ratio of content (%) of the active ingredient after storage. […] Total amount of decomposition products (%)=Total sum of the amounts of individual decomposition products Residual ratio of content (%)=[(Content after storage)/(Content before storage)]×100 (HPLC condition)
# The respective samples before and after storage were mixed with an extraction medium, stirred for sixty minutes, and centrifuged at 3000 rpm for fifteen minutes. The resulting supernatants were assayed by liquid chromatography to thereby determine the amounts of decomposition products and the content of the active ingredient. • Extraction medium: 30% by volume aqueous solution of acetonitrile • Detector: Ultraviolet absorptiometer • Mobile phase A: Mixture of water/acetonitrile/(sodium perchlorate monohydrate)/(perchloric acid) (900:100:7:1, V/V/W/V) • Mobile phase B: Mixture of acetonitrile/water/(sodium perchlorate monohydrate)/(perchloric acid) (900:100:7:1, V/V/W/V) • Column: Stainless steel tube having an inner diameter of 4.6 mm and a length of 15 cm, charged with 3-μm octadecylsilylated silica gel for liquid chromatography • Column temperature: Constant temperature around 40° C.
compound,measurement,setting,value
"CC#C[C@H](C)Oc1cc(N)c(Cl)cc1C(=O)NC1CC2CCC(C1)N2C (stereo partly drawn) [the active ingredient, 4-amino-5-chloro-N-[(1R,3r,5S)-8-methyl-8-azabicyclo[3.2.1]oct-3-yl]-2-[(1S)-1-methylbut-2-ynyloxy]benzamide]","Decomposition on storage, in words",compared within additive class or with control,no decomposition product
same,Amount of main decomposition product at RRT = 1.37 (%),"active ingredient admixed with additive (additive rate 100, 50 or 15 to the active ingredient), lid open, HPLC external standard method",0.00%
same,Residual ratio of content (%),"active ingredient admixed with additive, lid open, content after/before storage x100",99.6%
same,Total amount of decomposition products (%),"active ingredient admixed with additive, lid open, sum of individual decomposition products",0.00%
